This passage reports inhibition results from paper PMC9927415, “Tyrosine Kinase Inhibitors Display Potent Activity against Cryptosporidium parvum” (Microbiology Spectrum, 2022).

Test in all cases: KINOMEscan competitive binding
One assay deals with T1, PRKCH (Homo sapiens, UniProt P24723).
T1 construct: purchased DiscoverX (KINOMEscan)
Conditions: n=1, read-out: Percent inhibition, PRKCH.

In another assay the target is T2, TYK2(Kin.Dom.2) (Homo sapiens, UniProt P29597).
T2 construct: TYK2(Kin.Dom.2); purchased DiscoverX (KINOMEscan)
T2 sequence (P29597 889-1187 limits assumed): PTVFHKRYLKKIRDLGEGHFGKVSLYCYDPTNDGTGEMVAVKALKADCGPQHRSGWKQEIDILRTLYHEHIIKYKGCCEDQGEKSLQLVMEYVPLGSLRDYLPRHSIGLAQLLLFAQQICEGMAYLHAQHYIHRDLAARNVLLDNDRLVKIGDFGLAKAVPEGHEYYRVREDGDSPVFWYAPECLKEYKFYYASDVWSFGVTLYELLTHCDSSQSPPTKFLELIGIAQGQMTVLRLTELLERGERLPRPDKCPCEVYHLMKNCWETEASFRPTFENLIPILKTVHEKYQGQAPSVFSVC
Conditions: n=1, read-out: Percent inhibition, TYK2(Kin.Dom.2).

For another assay, the target named is T3, RIPK2 (Homo sapiens, UniProt O43353).
T3 construct: purchased DiscoverX (KINOMEscan)
T3 sequence (O43353 whole entry): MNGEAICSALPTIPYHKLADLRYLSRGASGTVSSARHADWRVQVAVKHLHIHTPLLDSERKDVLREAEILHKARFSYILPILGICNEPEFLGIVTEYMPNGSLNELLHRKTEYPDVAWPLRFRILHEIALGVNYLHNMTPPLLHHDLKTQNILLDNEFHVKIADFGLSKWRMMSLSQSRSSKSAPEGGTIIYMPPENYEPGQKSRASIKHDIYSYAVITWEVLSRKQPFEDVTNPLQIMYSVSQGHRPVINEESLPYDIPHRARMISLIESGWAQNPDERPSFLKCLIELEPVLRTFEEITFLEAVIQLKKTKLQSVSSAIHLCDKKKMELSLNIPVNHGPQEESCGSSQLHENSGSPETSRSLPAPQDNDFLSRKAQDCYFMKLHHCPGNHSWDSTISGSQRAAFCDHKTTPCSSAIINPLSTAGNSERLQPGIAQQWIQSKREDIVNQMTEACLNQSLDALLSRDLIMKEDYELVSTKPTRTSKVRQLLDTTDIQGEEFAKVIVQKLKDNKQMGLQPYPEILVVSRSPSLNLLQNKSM
Conditions: n=1, read-out: Percent inhibition, RIPK2.

In another assay the target is T4, PLK4 (Homo sapiens, UniProt O00444).
T4 construct: purchased DiscoverX (KINOMEscan)
T4 sequence (O00444 1-970): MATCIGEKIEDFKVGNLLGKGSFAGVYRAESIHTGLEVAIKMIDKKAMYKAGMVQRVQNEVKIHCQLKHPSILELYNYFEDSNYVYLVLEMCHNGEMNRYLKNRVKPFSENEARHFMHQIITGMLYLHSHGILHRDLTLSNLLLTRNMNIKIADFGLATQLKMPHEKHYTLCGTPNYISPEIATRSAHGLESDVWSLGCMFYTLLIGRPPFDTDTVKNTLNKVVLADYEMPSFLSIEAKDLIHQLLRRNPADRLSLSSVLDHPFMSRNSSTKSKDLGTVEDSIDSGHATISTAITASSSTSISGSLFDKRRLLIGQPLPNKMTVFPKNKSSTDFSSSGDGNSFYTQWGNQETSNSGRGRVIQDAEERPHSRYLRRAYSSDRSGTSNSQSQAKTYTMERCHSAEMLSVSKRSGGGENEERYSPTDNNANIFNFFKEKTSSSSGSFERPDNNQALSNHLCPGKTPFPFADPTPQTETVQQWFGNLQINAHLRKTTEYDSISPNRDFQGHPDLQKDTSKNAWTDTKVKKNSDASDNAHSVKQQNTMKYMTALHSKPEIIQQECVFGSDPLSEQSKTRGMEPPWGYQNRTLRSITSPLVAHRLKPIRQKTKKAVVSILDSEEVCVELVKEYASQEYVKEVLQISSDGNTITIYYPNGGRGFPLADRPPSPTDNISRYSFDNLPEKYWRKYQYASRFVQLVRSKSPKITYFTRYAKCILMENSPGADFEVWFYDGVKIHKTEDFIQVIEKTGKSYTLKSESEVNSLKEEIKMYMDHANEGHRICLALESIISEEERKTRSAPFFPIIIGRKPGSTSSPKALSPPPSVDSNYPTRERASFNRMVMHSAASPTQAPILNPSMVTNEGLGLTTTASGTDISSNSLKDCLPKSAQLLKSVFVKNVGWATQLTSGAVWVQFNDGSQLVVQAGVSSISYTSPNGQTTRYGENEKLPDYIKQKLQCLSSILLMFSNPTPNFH
Conditions: n=1, read-out: Percent inhibition, PLK4.

In another assay the target is T5, YSK1 (Homo sapiens, UniProt O00506).
T5 construct: purchased DiscoverX (KINOMEscan)
T5 sequence (O00506 whole entry): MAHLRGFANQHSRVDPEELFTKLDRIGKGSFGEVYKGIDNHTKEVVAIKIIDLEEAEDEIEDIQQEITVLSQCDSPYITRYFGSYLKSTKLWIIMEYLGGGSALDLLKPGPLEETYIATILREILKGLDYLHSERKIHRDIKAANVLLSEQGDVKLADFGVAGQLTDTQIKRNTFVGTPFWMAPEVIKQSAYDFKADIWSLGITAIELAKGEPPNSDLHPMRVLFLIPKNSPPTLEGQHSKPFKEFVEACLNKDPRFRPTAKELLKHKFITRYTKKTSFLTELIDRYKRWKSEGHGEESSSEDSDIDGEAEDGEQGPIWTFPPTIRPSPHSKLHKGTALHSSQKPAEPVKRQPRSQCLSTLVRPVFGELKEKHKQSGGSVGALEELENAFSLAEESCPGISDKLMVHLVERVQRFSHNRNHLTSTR
Conditions: n=1, read-out: Percent inhibition, YSK1.

Another assay deals with T6, YANK2 (Homo sapiens, UniProt Q9NY57).
T6 construct: purchased DiscoverX (KINOMEscan)
T6 sequence (Q9NY57 whole entry): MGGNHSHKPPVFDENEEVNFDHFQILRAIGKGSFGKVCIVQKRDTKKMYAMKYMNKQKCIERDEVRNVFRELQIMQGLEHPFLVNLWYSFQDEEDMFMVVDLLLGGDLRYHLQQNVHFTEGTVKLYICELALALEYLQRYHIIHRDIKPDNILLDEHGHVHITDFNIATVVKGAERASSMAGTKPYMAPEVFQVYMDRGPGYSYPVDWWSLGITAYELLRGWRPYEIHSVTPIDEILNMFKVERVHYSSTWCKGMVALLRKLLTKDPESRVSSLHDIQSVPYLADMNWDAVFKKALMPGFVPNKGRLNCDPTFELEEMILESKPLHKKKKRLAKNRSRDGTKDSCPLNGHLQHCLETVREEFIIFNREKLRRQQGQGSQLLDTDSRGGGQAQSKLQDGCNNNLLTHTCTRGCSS
Conditions: n=1, read-out: Percent inhibition, YANK2.

Another assay has as its target T7, RPS6KA3(Kin.Dom.1) (Homo sapiens, UniProt P51812).
T7 construct: RPS6KA3(Kin.Dom.1); purchased DiscoverX (KINOMEscan)
Conditions: n=1, read-out: Percent inhibition, RPS6KA3(Kin.Dom.1).

Another assay addresses T8, SNF1LK2 (Homo sapiens, UniProt Q9H0K1).
T8 construct: purchased DiscoverX (KINOMEscan)
Conditions: n=1, read-out: Percent inhibition, SNF1LK2.

For another assay, the target named is T9, PRKG1 (Homo sapiens, UniProt Q13976).
T9 construct: purchased DiscoverX (KINOMEscan)
T9 sequence (Q13976 1-671): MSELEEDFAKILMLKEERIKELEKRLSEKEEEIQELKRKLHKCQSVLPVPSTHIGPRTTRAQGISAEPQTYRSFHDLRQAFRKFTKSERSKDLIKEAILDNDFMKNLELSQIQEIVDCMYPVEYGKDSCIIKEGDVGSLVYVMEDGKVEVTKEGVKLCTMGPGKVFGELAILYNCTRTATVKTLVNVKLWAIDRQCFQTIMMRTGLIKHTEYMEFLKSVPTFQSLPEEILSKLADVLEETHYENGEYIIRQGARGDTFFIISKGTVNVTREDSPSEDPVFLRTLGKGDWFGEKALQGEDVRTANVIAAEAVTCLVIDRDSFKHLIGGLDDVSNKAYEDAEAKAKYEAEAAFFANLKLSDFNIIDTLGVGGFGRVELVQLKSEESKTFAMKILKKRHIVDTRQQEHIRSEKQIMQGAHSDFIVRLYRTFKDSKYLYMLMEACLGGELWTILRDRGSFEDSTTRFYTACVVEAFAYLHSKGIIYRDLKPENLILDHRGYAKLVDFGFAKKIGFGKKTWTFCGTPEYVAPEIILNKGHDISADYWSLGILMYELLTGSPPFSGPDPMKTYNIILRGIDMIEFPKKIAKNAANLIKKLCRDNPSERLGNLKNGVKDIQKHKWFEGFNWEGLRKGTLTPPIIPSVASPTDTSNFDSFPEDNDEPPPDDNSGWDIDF
Conditions: n=1, read-out: Percent inhibition, PRKG1.

The target of the next assay is T10, PKAC-alpha (Homo sapiens, UniProt P17612).
T10 construct: purchased DiscoverX (KINOMEscan)
Conditions: n=1, read-out: Percent inhibition, PKAC-alpha.

Another assay deals with T11, PTK2 (Homo sapiens, UniProt Q05397).
T11 construct: purchased DiscoverX (KINOMEscan)
T11 sequence (Q05397 whole entry): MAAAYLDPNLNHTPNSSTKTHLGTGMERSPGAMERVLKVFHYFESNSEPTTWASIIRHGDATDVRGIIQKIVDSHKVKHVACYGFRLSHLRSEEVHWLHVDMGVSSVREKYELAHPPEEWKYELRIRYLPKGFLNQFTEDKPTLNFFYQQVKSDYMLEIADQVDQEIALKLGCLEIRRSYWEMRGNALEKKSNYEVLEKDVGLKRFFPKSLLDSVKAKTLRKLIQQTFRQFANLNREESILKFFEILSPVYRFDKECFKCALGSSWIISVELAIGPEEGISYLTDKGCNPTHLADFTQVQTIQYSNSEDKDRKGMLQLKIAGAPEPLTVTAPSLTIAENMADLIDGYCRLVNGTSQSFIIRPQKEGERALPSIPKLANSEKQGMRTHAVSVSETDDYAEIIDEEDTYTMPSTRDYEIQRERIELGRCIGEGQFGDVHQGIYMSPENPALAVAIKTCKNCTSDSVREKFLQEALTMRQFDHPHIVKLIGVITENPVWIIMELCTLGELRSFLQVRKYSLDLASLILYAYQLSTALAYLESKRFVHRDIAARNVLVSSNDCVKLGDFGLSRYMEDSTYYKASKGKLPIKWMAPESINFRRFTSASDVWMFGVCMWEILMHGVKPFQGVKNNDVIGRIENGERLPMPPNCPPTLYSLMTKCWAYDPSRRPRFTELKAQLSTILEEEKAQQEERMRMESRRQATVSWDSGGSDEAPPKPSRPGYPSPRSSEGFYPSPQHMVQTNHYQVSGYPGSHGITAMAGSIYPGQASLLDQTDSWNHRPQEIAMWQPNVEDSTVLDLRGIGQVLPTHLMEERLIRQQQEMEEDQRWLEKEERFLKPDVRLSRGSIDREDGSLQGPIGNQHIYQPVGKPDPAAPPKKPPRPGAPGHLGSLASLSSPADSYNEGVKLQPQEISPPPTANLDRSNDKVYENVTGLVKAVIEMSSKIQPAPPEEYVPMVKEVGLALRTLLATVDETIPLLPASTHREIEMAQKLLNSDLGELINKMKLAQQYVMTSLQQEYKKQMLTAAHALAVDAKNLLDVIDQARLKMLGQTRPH
Conditions: n=1, read-out: Percent inhibition, PTK2.

The target in another assay is T12, PTK6 (Homo sapiens, UniProt Q13882).
T12 construct: purchased DiscoverX (KINOMEscan)
T12 sequence (Q13882 whole entry): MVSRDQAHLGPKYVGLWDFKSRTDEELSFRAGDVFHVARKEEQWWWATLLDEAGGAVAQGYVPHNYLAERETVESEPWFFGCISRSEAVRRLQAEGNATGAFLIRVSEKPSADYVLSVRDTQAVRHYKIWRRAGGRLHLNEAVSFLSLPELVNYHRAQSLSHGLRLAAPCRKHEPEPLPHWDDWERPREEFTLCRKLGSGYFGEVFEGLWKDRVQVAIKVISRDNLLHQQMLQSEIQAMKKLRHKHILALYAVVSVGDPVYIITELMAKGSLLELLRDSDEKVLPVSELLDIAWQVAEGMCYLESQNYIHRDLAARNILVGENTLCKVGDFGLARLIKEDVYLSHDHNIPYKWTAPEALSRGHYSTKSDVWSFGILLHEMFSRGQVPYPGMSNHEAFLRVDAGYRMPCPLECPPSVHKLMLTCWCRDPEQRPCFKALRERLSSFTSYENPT
Conditions: n=1, read-out: Percent inhibition, PTK6.

T1 sequence (P24723 whole entry): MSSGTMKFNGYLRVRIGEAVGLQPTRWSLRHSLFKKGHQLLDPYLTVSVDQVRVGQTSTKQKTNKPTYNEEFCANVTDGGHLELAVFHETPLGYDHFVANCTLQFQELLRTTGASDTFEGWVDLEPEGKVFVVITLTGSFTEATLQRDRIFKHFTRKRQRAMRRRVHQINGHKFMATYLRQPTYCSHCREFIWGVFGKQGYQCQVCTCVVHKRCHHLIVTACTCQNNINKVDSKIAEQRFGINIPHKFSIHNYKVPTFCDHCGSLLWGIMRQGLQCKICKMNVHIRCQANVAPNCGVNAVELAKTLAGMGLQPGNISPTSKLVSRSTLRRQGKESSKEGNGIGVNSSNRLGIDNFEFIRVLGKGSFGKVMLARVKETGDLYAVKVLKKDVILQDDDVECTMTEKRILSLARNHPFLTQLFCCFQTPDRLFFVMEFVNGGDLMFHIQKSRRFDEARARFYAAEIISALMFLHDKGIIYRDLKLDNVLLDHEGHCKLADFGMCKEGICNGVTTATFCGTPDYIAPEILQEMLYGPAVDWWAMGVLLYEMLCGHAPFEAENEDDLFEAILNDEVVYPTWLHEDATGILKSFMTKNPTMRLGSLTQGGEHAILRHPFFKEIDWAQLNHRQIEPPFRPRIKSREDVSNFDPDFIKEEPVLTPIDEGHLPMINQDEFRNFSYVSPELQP
T7 sequence (P51812 1-397 limits assumed): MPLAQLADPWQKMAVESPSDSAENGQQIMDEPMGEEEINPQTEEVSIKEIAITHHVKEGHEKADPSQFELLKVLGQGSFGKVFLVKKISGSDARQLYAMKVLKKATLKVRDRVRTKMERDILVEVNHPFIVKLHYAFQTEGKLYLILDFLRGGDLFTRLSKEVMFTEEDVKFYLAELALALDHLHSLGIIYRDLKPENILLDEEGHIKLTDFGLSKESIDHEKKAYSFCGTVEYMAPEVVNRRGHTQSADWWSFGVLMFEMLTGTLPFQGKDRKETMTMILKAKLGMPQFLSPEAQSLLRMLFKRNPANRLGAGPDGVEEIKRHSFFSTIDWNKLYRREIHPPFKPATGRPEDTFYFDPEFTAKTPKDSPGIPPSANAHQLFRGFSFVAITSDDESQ
T8 sequence (Q9H0K1 whole entry): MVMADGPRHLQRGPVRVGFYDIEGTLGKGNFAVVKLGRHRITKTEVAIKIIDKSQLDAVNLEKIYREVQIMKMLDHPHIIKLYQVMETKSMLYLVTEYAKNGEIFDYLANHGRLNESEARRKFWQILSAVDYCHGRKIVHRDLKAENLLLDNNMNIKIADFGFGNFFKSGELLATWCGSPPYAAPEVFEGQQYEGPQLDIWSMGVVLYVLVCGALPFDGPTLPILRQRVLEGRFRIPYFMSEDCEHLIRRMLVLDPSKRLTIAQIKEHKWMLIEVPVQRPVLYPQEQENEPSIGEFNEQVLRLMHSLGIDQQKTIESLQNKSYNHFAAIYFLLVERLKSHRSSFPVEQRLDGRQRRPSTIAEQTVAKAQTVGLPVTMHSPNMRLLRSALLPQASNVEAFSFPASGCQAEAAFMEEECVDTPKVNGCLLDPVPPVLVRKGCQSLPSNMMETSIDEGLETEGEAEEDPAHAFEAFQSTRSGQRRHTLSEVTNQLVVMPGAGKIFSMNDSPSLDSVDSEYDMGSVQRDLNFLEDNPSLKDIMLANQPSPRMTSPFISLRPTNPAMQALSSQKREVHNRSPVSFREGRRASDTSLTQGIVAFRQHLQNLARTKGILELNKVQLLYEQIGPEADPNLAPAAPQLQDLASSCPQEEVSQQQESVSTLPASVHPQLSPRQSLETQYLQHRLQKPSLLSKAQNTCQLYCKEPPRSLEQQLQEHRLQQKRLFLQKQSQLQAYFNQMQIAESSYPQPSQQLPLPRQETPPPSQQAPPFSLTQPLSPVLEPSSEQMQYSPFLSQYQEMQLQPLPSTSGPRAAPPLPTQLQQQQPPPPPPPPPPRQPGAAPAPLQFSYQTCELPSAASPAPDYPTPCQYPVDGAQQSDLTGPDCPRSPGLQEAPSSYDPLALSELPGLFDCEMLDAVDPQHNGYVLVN

Take `Nc1ncc2c(-c3ccncc3)c[nH]c2n1` [Compound 11]: the inhibition at 10 µM on PRKCH came out at 0%; at TYK2(Kin.Dom.2) it was 0%; at RIPK2, 0%; on PLK4, 84.4%; on YSK1, 0%; on YANK2, 0%. The inhibition at 10 µM on RPS6KA3(Kin.Dom.1), on SNF1LK2, on PRKG1, on PKAC-alpha, on PTK2 and at PTK6 was 0% throughout.
